Results on three compounds are retold here after US9937260B2, “Curcumin conjugates for treating and preventing cancers” (BOARD OF SUPERVISORS OF LOUISIANA STATE UNIVERSITY AND …, priority 2008, dated 2018).

Non-standard residues stand in square brackets, D forms with d. Residues, ends and D or L forms follow the SMILES beside them. pGlu = O=C1CC[C@@H](C(=O)O)N1

The subject of data set [1] is luciferase-transfected MIAPaCa-2 xenograft tumors. Put plainly: Human pancreatic cancer xenograft in female athymic nude mice. The class given is in vivo. The text has this:
MIAPaCa-2, a cell line expressing the LHRH receptor, was then used for in vivo experiments. We stably transfected MIAPaCa-2 cells with a gene encoding luciferase. We used the transfected cells to produce a pancreatic cancer xenograft mouse model.
Forty-eight female nude mice (athymic Balb/c, 4-5 weeks old) were obtained from a commercial vendor (Charles River Laboratories, Wilmington, Mass.), and caged individually in a room maintained at constant temperature and humidity under a 12-h light and darkness cycle, and fed a regular, autoclaved chow diet with water ad libitum. […]
After the tumors were established (100-250 mm^3), the 48 mice were randomized into six different treatment groups (n=8 mice per group): (1) LHRH alone, (2) LHRH-Curcumin, (3) LHRH-Phor21, (4) unconjugated LHRH and Phor21, (5) vehicle control, and (6) a control group of tumor-bearing mice that were necropsied before treatment (baseline controls). […] Tumor volumes and mice body weights were measured twice weekly, and mice were necropsied one week after the last treatment. At necropsy, tumors, ovaries, kidneys, pancreases, lungs, spleen, several bones, and liver were removed and weighed, and metastastic cell numbers were measured by luciferase assay. The tumor volumes and weights were analyzed by one-way ANOVA, and compared among groups using an unpaired Student's t-test. […]
In general terms: A xenograft is tissue or cells of one species grown in another, often human tumour cells in immunodeficient mice.

Data set [2] concerns MIAPaCa-2, BxPC-3 and PANC-1 pancreatic cancer cells. Put plainly: Modified MTT cytotoxicity assay. The class given is cell-based, human. On the procedure: Pancreatic cell lines MIAPaCa-2, BxPC-3, and PANC-1 were obtained from the American Type Culture Collection. All cell lines were cultured in DMEM supplemented with 10% FBS, 100 units/mL penicillin, and 100 μg/mL streptomycin. The presence and location of LHRH-receptors in these pancreatic cancer cell lines was determined by immunochemical methods.
The cytotoxicity of the peptides was determined with a modified MTT (3-(4, 5-dimethylthiazol-2-yl)-2, 5-diphenyltetrazolium bromide) assay. Briefly, MIAPaCa-2, BxPC-3 and PANG-1 cells (2000/well) were separately incubated in 96-well plates in triplicate in a cell growth medium with different concentrations of LHRH, LHRH-Curcumin, Curcumin, and LHRH-Phor21. Three wells served as controls, each receiving an equivalent volume of medium. After 24 hours, an MTT solution (5 mg/ml in PBS) was added to each well and incubated for 2 hours at 37° C., followed by extraction with buffer (20% SDS and 50% dimethylformamide). The cells were incubated overnight at 37° C. Optical absorbance of the cell suspension was then measured at 590 nm using an MRX Revelation 96-well multiscanner (Dynex Technologies, Chantilly, Va.). From these measurements the IC50 doses of the peptides were calculated. […] Values given are mean±SD of triplicate cultures.
A general note: Formazan colour is commonly taken as a measure of viable cells.

A further data set has as its system caspase-3/7. Put plainly: Apo-ONE homogenous caspase-3/7 assay in MIAPaCa-2 cells. Format: cell-based, human. The following applies: 5 μM, 24 hours, p<0.05, FIG. 6. On the procedure:
We also directly measured the effect of LHRH-curcumin on caspase 3 enzyme activity with the Apo-ONE homogenous caspase-3/7 assay kit (Promega, Madison, Wis.). This assay uses a profluorescent substrate with an optimized, bifunctional cell lysis/activity buffer. MIAPaCa-2 cells were treated in triplicate (10,000 cells per well) with the free peptide LHRH, or with the LHRH-Curcumin conjugate, in each case at a 5 μM concentration, and incubated for 24 hours. Following the 24 hour incubation, the Apo-ONE homogenous caspase-3/7 assay was performed according to the manufacturer's protocol. The buffer and 100 μL Apo-ONE caspase-3/7 assay reagent were mixed and added to the samples. Cells were then incubated for an additional hour prior to fluorescence measurements. Upon sequential cleavage and removal of the Asp-Glu-Val-Asp peptide (SEQ ID NO. 10) by caspase-3/7 activity, the rhodamine 110 leaving group became intensely fluorescent with excitation at 499 nm and an emission maximum at 512 nm. The excitation/emission was recorded on a FlexStation (Molecular Devices, Sunnyvale, Calif.) with softMax Pro version 4.8 software. The experiment was conducted in duplicate. Statistical significance was determined by a two-tailed Students t-test, using GraphPad Prism software version 5.0.

Data set [3] relates to advanced pancreatic cancer. The following applies: cited from earlier work.

With `CC(C)C[C@H](NC(=O)CNC(=O)[C@H](Cc1ccc(O)cc1)NC(=O)[C@H](CO)NC(=O)[C@H](Cc1c[nH]c2ccccc12)NC(=O)[C@H](Cc1c[nH]cn1)NC(=O)[C@@H]1CCC(=O)N1)C(=O)N[C@@H](CCCNC(=N)N)C(=O)N1CCC[C@H]1C(=O)NCC(=O)N[C@@H](CCCCN)C(=O)N[C@@H](Cc1ccccc1)C(=O)N[C@@H](C)C(=O)N[C@@H](CCCCN)C(=O)N[C@@H](Cc1ccccc1)C(=O)N[C@@H](C)C(=O)N[C@@H](CCCCN)C(=O)N[C@@H](CCCCN)C(=O)N[C@@H](Cc1ccccc1)C(=O)N[C@@H](C)C(=O)N[C@@H](CCCCN)C(=O)N[C@@H](Cc1ccccc1)C(=O)N[C@@H](C)C(=O)N[C@@H](CCCCN)C(=O)N[C@@H](CCCCN)C(=O)N[C@@H](Cc1ccccc1)C(=O)N[C@@H](C)C(=O)N[C@@H](CCCCN)C(=O)N[C@@H](Cc1ccccc1)C(=O)N[C@@H](C)C(=O)N[C@@H](CCCCN)C(=O)O` [LHRH-Phor21] ([pGlu]HWSYGLRPGKFAKFAKKFAKFAKKFAKFAK-OH; C-terminus assumed), the “mice body weights as indicators of potential toxicity” value in data set [1] (FIG. 5(D)) is listed as “not significantly different from control”. In addition, the side effects entry in data set [1] (tail vein injections) was “some inflammation was seen in the mice tails at the site of injections”. Besides, the relative cytotoxicity result in data set [2] is “greater cytotoxicity than that of LHRH-Curcumin”.
For the compound “pGlu-His-Trp-Ser-Tyr-Gly-Leu-Arg-Pro-Gly [LHRH]”, the caspase-3/7 activity entry in the data set on caspase-3/7 is “significantly increased”.
As to `COc1cc(/C=C/C(=O)CC(=O)/C=C/c2ccc(O)c(OC)c2)ccc1O` [Curcumin, diferuloylmethane], in data set [2] (24 hours, MTT, FIGS. 2(A)-2(C)), the “inhibition of proliferation of pancreatic cancer cells” value is recorded as “inhibited the proliferation of pancreatic cancer cells”. Also, the bioavailability result in data set [3] (oral administration) was “poor bioavailability”. Moreover, the “patients with clinical biological activity” value in data set [3] (oral, advanced pancreatic cancer) was 2 of 21.
